The source of these data is ChEMBL document CHEMBL1201862, “PubChem BioAssay data set” (2004).

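48-hour exposure; five concentrations; linearly interpolated endpoints. Here, GI50 denotes the concentration required for 50% inhibition of growth.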 Active and inactive are the calls of the source. Cut-off read from the data, not from the text of the source: active = GI50 up to about 1.1 µM and inactive = higher. Some results are limits rather than exact numbers.

Common to all, as to experiment: growth of human tumour cells (NCI), 48 h
The subject of assay [1] is A498.
Assay [2] relates to BT-549.
Assay [3] relates to CAKI-1.
The test system of assay [4] is COLO 205.
Assay [5] deals with HCT-15.
In assay [6] the test system is HOP-92.
The test system of assay [7] is Hs-578T.
For assay [8], the system named is K562.
Assay [9] deals with KM12.
Assay [10] deals with NCI-H226.
In assay [11] the test system is NCI-H522.
Assay [12] concerns OVCAR-3.
For assay [13], the system named is OVCAR-4.
The subject of assay [14] is OVCAR-8.
Assay [15] deals with PC-3.
For assay [16], the system named is SK-OV-3.
Assay [17] deals with SN12C.
Assay [18] deals with SNB-75.
The subject of assay [19] is SW-620.
For assay [20], the system named is TK-10.

For `N=C(N)SCc1ccc(Cl)cc1Cl.O=[N+]([O-])c1c(O)c(Cl)cc(Cl)c1Cl`, the GI50 in assay [1] was 13.3 µM (inactive); in assay [2] it was 16.3 µM (inactive); in assay [3], 11 µM (inactive); in assay [4], 14.2 µM (inactive); in assay [5] it was 13.3 µM; in assay [6] it was 11.5 µM (inactive). Besides, the GI50 in [7] is 20.7 µM (inactive); in assay [8] it was 4.35 µM (inactive); in assay [9], 13.7 µM (inactive); in [10], 20.5 µM (inactive); in [11], 10.3 µM (inactive); in [12], 13.1 µM (inactive). Besides, the GI50 in assay [13] was 12 µM (inactive); in assay [14], 24.3 µM (inactive); in [15], 11.9 µM (inactive); in assay [16] it was 17.3 µM (inactive); in [17], 11.9 µM (inactive); in assay [18], 15.1 µM (inactive). Moreover, the results for the GI50 in assay [19] and in assay [20] were 15.2 µM (inactive) and 6.18 µM (inactive), respectively.
Turning to `CCOC(=O)/C=C(/C(=O)OCC)n1cc(C)c(=O)n(Cc2cn(COCCOC(C)=O)nn2)c1=O`, the GI50 is 50.5 µM (inactive) in assay [1]; 19.9 µM (inactive) in [2]; 9.59 µM (inactive) in [3]; 7.82 µM (inactive) in [4]; 20.7 µM in assay [5]; 13.2 µM (inactive) in [6]. For the same compound, the GI50 was 26.3 µM (inactive) in assay [7]; 7.18 µM (inactive) in assay [8]; 23.1 µM (inactive) in assay [9]; 21.1 µM (inactive) in assay [10]; 2.49 µM (inactive) in [11]; 24.7 µM (inactive) in [12]. For the same compound, the GI50 in assay [13] was 20 µM (inactive); in assay [14] it was 16.2 µM (inactive); in [15], 37.3 µM (inactive); in assay [16], > 100 µM (inactive); in assay [17] it was 25.8 µM (inactive); in [18] it was 33.2 µM (inactive). Besides, the GI50 was 6.84 µM (inactive) in assay [19] and 14.2 µM (inactive) in assay [20].
Turning to `COCn1c(C)c(C)c2c(=O)oc(C)nc21`, the GI50 in assay [1] is > 100 µM (inactive); in assay [2], > 100 µM (inactive); in assay [3] it was 0.288 µM (active); in assay [4], > 100 µM (inactive); in assay [5], above 100 µM; in assay [6], > 100 µM (inactive). Also, the GI50 is > 100 µM (inactive) in assay [7]; > 100 µM (inactive) in assay [8]; > 100 µM (inactive) in [9]; > 100 µM (inactive) in assay [10]; 94.2 µM (inactive) in assay [11]; > 100 µM (inactive) in assay [13]. The GI50 in assay [14] was > 100 µM (inactive); in [15], > 100 µM (inactive); in assay [16], > 100 µM (inactive); in assay [17], > 100 µM (inactive); in assay [18] it was 83.4 µM (inactive); in [19], > 100 µM (inactive). For the same compound, the GI50 in [20] is > 100 µM (inactive).
On to `C/C(=N\NC(=S)Nc1ccc(C)cc1)c1nc2cccnc2[nH]1`, for which the GI50 in assay [1] was 7.71 µM (inactive); in assay [2], 1.23 µM (inactive); in assay [3] it was 1.84 µM (inactive); in assay [4] it was 3.9 µM (inactive); in assay [5], 2.86 µM; in assay [6] it was 6.38 µM (inactive). Also, the GI50 was 10.8 µM (inactive) in assay [7]; 2.9 µM (inactive) in assay [8]; 7.6 µM (inactive) in assay [9]; 1.78 µM (inactive) in assay [10]; 0.986 µM (active) in [11]; 0.483 µM (active) in assay [12]. In addition, the GI50 in assay [13] was 0.25 µM (active); in assay [14], 3.05 µM (inactive); in assay [15] it was 1.73 µM (inactive); in assay [16], 4.3 µM (inactive); in assay [17], 2.32 µM (inactive); in assay [18], 5.77 µM (inactive). For the same compound, the GI50 was 3.57 µM (inactive) in assay [19] and 2.67 µM (inactive) in assay [20].
Regarding `N=C(N)NS(=O)(=O)c1ccc(NC(=O)c2cccc3c(O)c4ccccc4nc23)cc1`, the GI50 is > 76.4 µM (inactive) in [1]; > 100 µM (inactive) in assay [2]; > 100 µM (inactive) in [3]; > 100 µM (inactive) in [4]; above 100 µM in [5]; 56.2 µM (inactive) in assay [6]. Also, the GI50 was > 100 µM (inactive) in assay [7]; 44 µM (inactive) in assay [8]; > 100 µM (inactive) in assay [9]; > 100 µM (inactive) in [10]; > 100 µM (inactive) in [11]; > 100 µM (inactive) in assay [12]. Also, the GI50 was > 100 µM (inactive) in [13]; 71.1 µM (inactive) in [14]; > 100 µM (inactive) in [15]; 58.2 µM (inactive) in [16]; > 100 µM (inactive) in [17]; 31.8 µM (inactive) in [18]. For the same compound, the results for the GI50 in [19] and in assay [20] were > 100 µM (inactive) and 54.8 µM (inactive), respectively.
In the case of `N#Cc1c(O)c(/C=N/c2ccc(Cl)cc2)c(=O)n2c1[nH]c1ccccc12`, the GI50 is > 100 µM (inactive) in [1]; > 100 µM (inactive) in [2]; > 100 µM (inactive) in [3]; > 100 µM (inactive) in assay [4]; 36.5 µM in assay [5]; > 100 µM (inactive) in [6]. Also, the GI50 in assay [7], in assay [8], in assay [9], in assay [10], in assay [11] and in assay [12] was > 100 µM (inactive) throughout. For the same compound, the GI50 in assay [13], in assay [14], in assay [15], in assay [16], in assay [17] and in assay [18] was > 100 µM (inactive) in each case. Besides, the GI50 in assay [19] and in assay [20] was > 100 µM (inactive) throughout.
Turning to `O=C(NC(N1CCN(c2cc3c(cc2F)c(=O)c(C(=O)O)cn3C2CC2)CC1)(C(F)(F)F)C(F)(F)F)c1ccccc1`, the GI50 in [1] is 30.4 µM (inactive); in [2], 51.2 µM (inactive); in [3], 22.9 µM (inactive); in assay [4], 19.1 µM (inactive); in assay [5] it was 22.1 µM; in assay [6], 33.8 µM (inactive). Also, the GI50 was 40.9 µM (inactive) in assay [7]; 39.4 µM (inactive) in assay [8]; 29.2 µM (inactive) in assay [9]; 34.1 µM (inactive) in assay [10]; 17.7 µM (inactive) in assay [11]; 43.5 µM (inactive) in assay [12]. Further, the GI50 in assay [13] was 35.2 µM (inactive); in assay [14], 46 µM (inactive); in [15] it was 45.1 µM (inactive); in assay [16], 34.1 µM (inactive); in [17], 36.1 µM (inactive); in [18] it was 33.6 µM (inactive). Moreover, the GI50 is 40.5 µM (inactive) in assay [19] and 27.4 µM (inactive) in assay [20].
On to `CCOC(=O)/C=C(\C(=O)OCC)n1ccc(=O)n(CC(=O)OCC)c1=O`, for which the GI50 is 17.7 µM (inactive) in assay [1]; 11.7 µM (inactive) in assay [2]; 0.638 µM (active) in [3]; 1.26 µM (inactive) in [4]; 1.83 µM in assay [5]; 1.45 µM (inactive) in [6]. For the same compound, the GI50 in assay [7] is 20 µM (inactive); in [8], 1.68 µM (inactive); in [9], 15.1 µM (inactive); in assay [10], 6.52 µM (inactive); in assay [11] it was 1 µM (active); in assay [12], 3.96 µM (inactive). Further, the GI50 is 3.66 µM (inactive) in [13]; 5.25 µM (inactive) in assay [14]; 4.74 µM (inactive) in assay [15]; 17.9 µM (inactive) in assay [16]; 4.84 µM (inactive) in assay [17]; 9.75 µM (inactive) in assay [18]. The results for the GI50 in assay [19] and in [20] were 1.23 µM (inactive) and 2.57 µM (inactive), respectively.
On to `Nc1ncnc2c1ccn2COC(CO)CO`, for which the GI50 in assay [1] is > 100 µM (inactive); in [2], > 100 µM (inactive); in assay [3], > 100 µM (inactive); in assay [5], above 100 µM; in assay [6], > 100 µM (inactive); in assay [7] it was > 100 µM (inactive). In addition, the GI50 in assay [8] was > 100 µM (inactive); in assay [9], > 100 µM (inactive); in assay [10] it was 46.2 µM (inactive); in assay [11] it was 54.7 µM (inactive); in [12], > 100 µM (inactive); in [13], > 100 µM (inactive). In addition, the GI50 in assay [14], in assay [15], in assay [16], in [17], in assay [18] and in assay [19] was > 100 µM (inactive) each time. Besides, the GI50 in assay [20] is > 100 µM (inactive).
Take `O=C1Nc2ccc(Br)cc2/C1=N/NC(=S)Nc1ccc(F)cc1`: the GI50 was 2.26 µM (inactive) in [1]; 0.395 µM (active) in assay [2]; 2.12 µM (inactive) in assay [3]; 4.02 µM (inactive) in assay [4]; 1.37 µM in assay [5]; 3.61 µM (inactive) in [6]. The GI50 in [7] was 12 µM (inactive); in assay [8], 3.61 µM (inactive); in [9] it was 5.11 µM (inactive); in assay [10], 9.84 µM (inactive); in assay [11] it was 10.5 µM (inactive); in assay [12], 13.3 µM (inactive). Besides, the GI50 is 7.24 µM (inactive) in [13]; 4.25 µM (inactive) in assay [14]; 5.27 µM (inactive) in assay [15]; 13.2 µM (inactive) in [16]; 4.15 µM (inactive) in [17]; 11.1 µM (inactive) in assay [18]. In addition, the GI50 in assay [19] was 4.78 µM (inactive); in assay [20], 5.86 µM (inactive).
